# From ChEMBL document CHEMBL1125092, “Nonneurotoxic tetralin and indan analogues of 3,4-(methylenedioxy)amphetamine (MDA)” (J Med Chem, 1990)
# Key:
# Rattus norvegicus [1] = assay: Tested for stimulus generation in rats trained to discriminate +/-MDMA from saline at 4.39 (umol/kg),(number of animals = 9); type: functional
# Rattus norvegicus [2] = assay: Monoamine levels in rat brain were evaluated after subcutaneous administration of 40 mg/kg for DA; type: functional
# Rattus norvegicus [3] = assay: Monoamine levels in rat brain were evaluated after subcutaneous administration of 40 mg/kg for DOPAC; type: functional
# Rattus norvegicus [4] = assay: Tested for stimulus generation in rats trained to discriminate +/-MDMA from saline at 17.57 (umol/kg), (number of animals =11); type: functional
# Rattus norvegicus [5] = species: Rattus norvegicus; assay: Compounds were evaluated for binding of [3H]paroxetine to rat brain cortical homogenate and number of binding sites (Bmax) for serotonin; type: tissue-based
# Rattus norvegicus [6] = assay: Tested for stimulus generation in rats trained to discriminate LSD from saline at a dose 2.2 (umol/kg), (number of animals = 15); type: functional
# Rattus norvegicus [7] = assay: Hallucinogenic property was determined in groups of LSD trained rats and percentage of animals disrupted was reported at a dose 17.57(umol/kg), (number of animals =21); type: functional
# Rattus norvegicus [8] = assay: Hallucinogenic property was determined in groups of LSD trained rats and percentage of animals disrupted was reported at a dose 2.2 (umol/kg), (number of animals = 15); type: functional
# Rattus norvegicus [9] = assay: Hallucinogenic property was determined in groups of MDMA trained rats and percentage of animals disrupted was reported at a dose 8.78 (umol/kg), (number of animals = 8); type: functional
# Rattus norvegicus [10] = assay: Tested for stimulus generation in rats trained to discriminate LSD from saline at a dose 8.78 (umol/kg), (number of animals = 16); type: functional
# [11] = Binding affinity was determined towards serotonin uptake site in presence of [3H]paroxetine radioligand in rat brain cortical homogenate; type: tissue-based
# Rattus norvegicus [12] = assay: Hallucinogenic property was determined in groups of LSD trained rats and percentage of animals disrupted was reported at a dose 8.78 (umol/kg), (number of animals = 16); type: functional
# Rattus norvegicus [13] = assay: Tested for stimulus generation in rats trained to discriminate LSD from saline at a dose 4.39 (umol/kg),(number of animals =11); type: functional
# Rattus norvegicus [14] = assay: Hallucinogenic property was determined in groups of LSD trained rats and percentage of animals disrupted was reported at 4.39 (umol/kg),(number of animals =11); type: functional
# Rattus norvegicus [15] = assay: Tested for stimulus generation in rats trained to discriminate +/-MDMA from saline at 2.2 (umol/kg), (number of animals =9); type: functional
# Rattus norvegicus [16] = assay: Monoamine levels in rat hippocampus were evaluated after subcutaneous administration of 40 mg/kg for 5-HIAA; type: functional
# Rattus norvegicus [17] = assay: Hallucinogenic property was determined in groups of MDMA trained rats and percentage of animals disrupted was reported at a dose 4.39 (umol/kg),(number of animals = 9); type: functional
# Rattus norvegicus [18] = assay: Monoamine levels in rat brain were evaluated after subcutaneous administration of 40 mg/kg for NE; type: functional
# Rattus norvegicus [19] = assay: Monoamine levels in rat hippocampus were evaluated after subcutaneous administration of 40 mg/kg for 5-HT; type: functional
# Rattus norvegicus [20] = species: Rattus norvegicus; assay: Compounds were evaluated for binding of [3H]paroxetine to rat hippocampal homogenate and number of binding sites (Bmax) for serotonin; type: tissue-based; settings: Hippocampus
# Rattus norvegicus [21] = assay: Monoamine levels in rat brain were evaluated after subcutaneous administration of 40 mg/kg for 5-HIAA; type: functional
# Rattus norvegicus [22] = assay: Monoamine levels in at hippocampus were evaluated after subcutaneous administration of 40 mg/kg for NE; type: functional
# Rattus norvegicus [23] = assay: Hallucinogenic property was determined in groups of MDMA trained rats and percentage of animals disrupted was reported at a dose 17.57(umol/kg), (number of animals =11); type: functional
# Rattus norvegicus [24] = assay: Hallucinogenic property was determined in groups of LSD trained rats and percentage of animals disrupted was reported at a dose 13.18 (umol/kg),(number of animals = 15); type: functional
# Rattus norvegicus [25] = assay: Hallucinogenic property was determined in groups of MDMA trained rats and percentage of animals disrupted was reported at a dose 2.2 (umol/kg), (number of animals =9); type: functional
# [26] = Binding affinity was determined towards serotonin uptake site in presence of [3H]paroxetine radioligand in rat hippocampal homogenate; type: tissue-based, Hippocampus
# Rattus norvegicus [27] = assay: Tested for stimulus generation in rats trained to discriminate +/-MDMA from saline at 8.78 (umol/kg), (number of animals = 8); type: functional
# Rattus norvegicus [28] = assay: Monoamine levels in rat brain were evaluated after subcutaneous administration of 40 mg/kg for HVA; type: functional
# Rattus norvegicus [29] = assay: Monoamine levels in rat brain were evaluated after subcutaneous administration of 40 mg/kg for 5-HT; type: functional
# Rattus norvegicus [30] = assay: Percentage of animals disrupted in groups of MDMA trained rats at a dose of 8.21 (umol/kg),(number of animals = 9); type: functional
# Rattus norvegicus [31] = assay: Percentage of animals disrupted was determined in groups of LSD trained rat at a dose of 8.21 (umol/kg),(no. of animals = 8); type: functional
# Rattus norvegicus [32] = assay: Tested for stimulus generation in rats trained to discriminate +/-MDMA from saline at 16.41(.umol/kg),(number of animals = 11); type: functional
# Rattus norvegicus [33] = assay: Tested for stimulus generation in rats trained to discriminate LSD from saline at a dose 8.21 (umol/kg),(number of animals = 8); type: functional
# Rattus norvegicus [34] = assay: Percentage of animals disrupted in groups of MDMA trained rats at a dose of 20.51 (umol/kg),(number of animals = 7); type: functional
# Rattus norvegicus [35] = assay: Tested for stimulus generation in rats trained to discriminate +/-MDMA from saline at 12.31 (umol/kg),(number of animals = 8); type: functional
# Rattus norvegicus [36] = assay: Percentage of animals disrupted in groups of MDMA trained rats at a dose of 12.31 (umol/kg),(number of animals = 8); type: functional
# Rattus norvegicus [37] = assay: Tested for stimulus generation in rats trained to discriminate LSD from saline at 4.10 (umol/kg),(number of animals = 10); type: functional
# Rattus norvegicus [38] = assay: Hallucinogenic property was determined in groups of LSD trained rats and percentage of animals disrupted was reported at a dose 4.10 (umol/kg),(number of animals = 10); type: functional
# Rattus norvegicus [39] = assay: Tested for stimulus generation in rats trained to discriminate LSD from saline at a dose 6.15 (umol/kg),(number of animals = 11); type: functional
# Rattus norvegicus [40] = assay: Tested for stimulus generation in rats trained to discriminate LSD from saline at a dose 16.41(.umol/kg),(number of animals = 11); type: functional
# Rattus norvegicus [41] = assay: Tested for stimulus generation in rats trained to discriminate +/-MDMA from saline at 17.44i (umol/kg),(number of animals = 11); type: functional
# Rattus norvegicus [42] = assay: Tested for stimulus generation in rats trained to discriminate LSD from saline at a 18.46 (umol/kg),(number of animals = 9); type: functional
# Rattus norvegicus [43] = assay: Tested for stimulus generation in rats trained to discriminate +/-MDMA from saline at 4.10 (umol/kg),(number of animals = 8); type: functional
# Rattus norvegicus [44] = assay: Percentage of animals disrupted was determined in groups of LSD trained rat at a dose of 18.46 (umol/kg),(no. of animals=9); type: functional
# Rattus norvegicus [45] = assay: Tested for stimulus generation in rats trained to discriminate +/-MDMA from saline at 8.21 (umol/kg),(number of animals = 9); type: functional
# Rattus norvegicus [46] = assay: Percentage of animals disrupted in groups of MDMA trained rats at a dose of 4.10 (umol/kg),(number of animals = 8); type: functional
# Rattus norvegicus [47] = assay: Percentage of animals disrupted was determined in groups of LSD trained rat at a dose of 6.15 (uM/kg), (no.of animals = 11); type: functional
# Rattus norvegicus [48] = assay: Percentage of animals disrupted in groups of MDMA trained rats at a dose of 16.41 (umol/kg),(number of animals = 11); type: functional
# Rattus norvegicus [49] = assay: Percentage of animals disrupted was determined in groups of LSD trained rat at a dose of 16.41 (umol/kg),(no. of animals=11); type: functional
# Rattus norvegicus [50] = assay: Percentage of animals disrupted in groups of MDMA trained rats at a dose of 17.44 (umol/kg),(number of animals = 11); type: functional
structure (smiles),measurement,setting,value
NC1CCc2cc3c(cc2C1)OCO3 (stereo not given),SDL,Rattus norvegicus [1],50%
same,Monoamine level,Rattus norvegicus [2],151 pg/mg
same,Monoamine level,Rattus norvegicus [3],213 pg/mg
same,SDL,Rattus norvegicus [4],88%
same,Bmax,Rattus norvegicus [5],964 fM/g
same,SDL,Rattus norvegicus [6],25%
same,D,Rattus norvegicus [7],64%
same,D,Rattus norvegicus [8],47%
same,D,Rattus norvegicus [9],0%
same,SDL,Rattus norvegicus [10],63%
same,Kd,[11],102 pM
same,D,Rattus norvegicus [12],50%
same,SDL,Rattus norvegicus [13],38%
same,D,Rattus norvegicus [14],27%
same,SDL,Rattus norvegicus [15],13%
same,Monoamine level,Rattus norvegicus [16],549 pg/mg
same,D,Rattus norvegicus [17],11%
same,Monoamine level,Rattus norvegicus [18],367 pg/mg
same,Monoamine level,Rattus norvegicus [19],256 pg/mg
same,Bmax,Rattus norvegicus [20],778 fM/g
same,Monoamine level,Rattus norvegicus [21],370 pg/mg
same,Monoamine level,Rattus norvegicus [22],484 pg/mg
same,D,Rattus norvegicus [23],27%
same,D,Rattus norvegicus [24],67%
same,D,Rattus norvegicus [25],11%
same,Kd,[26],118 pM
same,SDL,Rattus norvegicus [27],63%
same,Monoamine level,Rattus norvegicus [28],262 pg/mg
same,Monoamine level,Rattus norvegicus [29],356 pg/mg
COc1cc(C)c(OC)c2c1CC(N)C2 (stereo not given),D,Rattus norvegicus [30],11%
same,D,Rattus norvegicus [31],0%
same,SDL,Rattus norvegicus [32],75%
same,SDL,Rattus norvegicus [33],38%
same,D,Rattus norvegicus [34],71%
same,SDL,Rattus norvegicus [35],25%
same,D,Rattus norvegicus [36],0%
same,SDL,Rattus norvegicus [37],20%
same,D,Rattus norvegicus [38],0%
same,SDL,Rattus norvegicus [39],38%
same,SDL,Rattus norvegicus [40],63%
same,SDL,Rattus norvegicus [41],50%
same,SDL,Rattus norvegicus [42],89%
same,SDL,Rattus norvegicus [43],13%
same,D,Rattus norvegicus [44],0%
same,SDL,Rattus norvegicus [45],38%
same,D,Rattus norvegicus [46],0%
same,D,Rattus norvegicus [47],27%
same,D,Rattus norvegicus [48],27%
same,D,Rattus norvegicus [49],27%
same,D,Rattus norvegicus [50],27%
